Test results: patent US20220397566A1, “GAMMA-SECRETASE STABILIZING COMPOUND SCREENING ASSAY” (VIB VZW, priority 2019, published 2022)

Assays:
PSEN1/g-secretase = PSEN1/g-secretase (Homo sapiens, UniProt P49768); experiment: GFP-PSEN1 relocation in primary hippocampal neurons; assay type: cell-based; design: expressed in transfected cells; host or cells: rat (E18) primary hippocampal neurons, lentiviral pFUGW-GFP-PSEN1; conditions: rat primary hippocampal neurons, 1 μM
Experimental: FIG. 1. DAPT relocates PSEN1/g-secretase to late endosomes. (A) PSEN1 and PSEN2 double knock-out (dKO) MEFs stably expressing GFP-PSEN1 or GFP-PSEN2 were treated for 16 h with 1 μM of DAPT or DMSO and immunostained for GFP (green) and LAMP1 antibodies (red). (B) Quantification of (A) using Mander's coefficient. (C) Ratio of GFP intensity in LAMP1-positive structures over total GFP intensity in the cell, normalized to DMSO-treated cells (control=Ctrl). (D) Quantification of size area of LAMP1-positive organelles per cell showing no significant differences between DMSO and DAPT-treated cells. (E) PSEN1, PSEN2 and NCT triple KO MEFs stably rescued with NCT-SNAP and GFP-PSEN1 were treated for 16 h with 1 μM of DAPT or DMSO (Ctrl). Prior to fixation, SNAP-Cell 647-SiR was added to label NCT-SNAP (red for Merge2). After 1 h, cells were fixed and immunostained for GFP (green) and LAMP1 (red for Merge2). Two merged images are shown. […] All graphs show the median with 95% confidence interval (n=3, ˜20 cells per experiments; p-values are calculated using Mann-Whitney test; ns means non-significant). […]
The plasmids pSG5-C99-3×FLAG and pMSCV-GFP-PSEN1-wt and FADs, pFUGW-GFP-PSEN1 were previously described (Sannerud et al 2016 Cell 166). […] Primary hippocampal neurons were infected at 3 to 4 days in vitro (DIV) and analyzed at 7 DIV.

[1] = molecular target: T1, PSEN1/g-secretase complex (Homo sapiens, UniProt P49768); experiment: Relocation of GFP-PSEN1/g-secretase to LAMP1-positive late endosomes (confocal immunofluorescence); assay type: cell-based, mouse
T1 construct: expressed in transfected cells
Experimental: We now questioned whether g-secretase inhibitors would affect subcellular distribution of g-secretase complexes as well. We made use of mouse embryonic fibroblasts (MEFs) in which both PSEN1 an PSEN2 are knocked-out (dKO), rescued with either EGFP-PSEN1 or EGFP-PSEN2 (FIG. 1A). […] The dKO MEFs were then incubated overnight with N—[N-(3,5-difluorophenacetyl)-L-alanyl]-S-phenylglycine t-butyl ester (DAPT). DAPT is a non-transition state analogue (TSA) g-secretase inhibitor that is widely used (Dovey et al 2001 J Neurochem 76).
All culture media and sera are from ThermoFisher Scientific. Mouse embryonic fibroblasts (MEFs), PSEN1 knock-out (1 ko), PSEN1 and PSEN2 double knock-out (dKO, Herreman et al 2000 Nat Cell Biol 2), rescued 1 ko and dKO cell lines cells were routinely grown in Dulbecco's modified Eagle's medium (DMEM/F12) supplemented with 10% fetal calf serum (FCS). All cell lines were maintained in a humidified chamber with 5% CO2 at 37° C. Primary hippocampal neuron cultures are derived from E18 rat embryos (Esselens et al 2004 J Cell Biol 166). Stable rescued 1 ko and dKO cell lines were generated using replication-defective recombinant retroviral system (pMCSV vector, Clontech) expressing the gene of interest.
Cells were plated on glass coverslips, transfected 24 h later and processed for indirect immunolabeling the next day (Sannerud et al 2011 Proc Natl Acad Sci USA 108). Images were captured on a confocal microscope (Leica TCS SP5 II, Leica Microsystems) connected to an upright microscope, using an oil-immersion plan Apo 60× A/1.40 NA objective lens. Image acquisition was performed with LAS (Leica Microsystems). Images were further processed with ImageJ and PhotoshopCS6 (Adobe, Calif.). ImageJ software with the plugin JACoP (Bolte and Cordelieres 2006 J Microsc 224) was used for signal overlap quantification (Mander's coefficient). Images were acquired with identical settings and regions of interest (ROI) covering whole cells were used for quantification.

C[C@H](NC(=O)Cc1cc(F)cc(F)c1)C(=O)N[C@H](C(=O)OC(C)(C)C)c1ccccc1 [DAPT, N—[N-(3,5-difluorophenacetyl)-L-alanyl]-S-phenylglycine t-butyl ester]
relocation of GFP-PSEN1 (PSEN1/g-secretase): Identical observations
EGFP-PSEN1 in LAMP1-positive organelles, Mander's coefficient ([1]; 1 μM, 16 hrs, PSEN1/PSEN2 dKO MEFs rescued with EGFP-PSEN1): threefold increase
increase in ratio of EGFP-PSEN1 fluorescence within LAMP1-positive compartments over total EGFP-PSEN1 ([1]; 1 μM, 16 hrs, dKO MEFs rescued with EGFP-PSEN1): 50%
translocation of the PSEN1/g-secretase complex to the late endosomes (Rel MFI) ([1]; 1 μM, FIG. 8): induce a translocation of the PSEN1/g-secretase complex to the late endosomes
reversibility of late endosomal relocation after wash-out ([1]; DAPT-containing medium replaced with fresh medium, 16 hrs): fully reversible
dose dependence of PSEN1/g-secretase relocation ([1]; between 1 and 1000 nM): clear dose response
fold increase by which PSEN1/g-secretase relocates ([1]; dose response, normalised to DMSO): almost two-fold
